{"source": "paper PMC4979471", "about": "(Cell Death Discovery, 2015)", "assay_in_all_cases": "Kinase selectivity, P33-radiolabeled assay", "format_in_all_cases": "biochemical", "settings_in_all_cases": "10 μM ATP", "key": {"ERK5/MAPK7": {"molecular_target": "T1, ERK5/MAPK7 (Homo sapiens, UniProt Q13164)", "T1 construct": "purchased Reaction Biology Corp", "T1 sequence (Q13164 whole entry)": "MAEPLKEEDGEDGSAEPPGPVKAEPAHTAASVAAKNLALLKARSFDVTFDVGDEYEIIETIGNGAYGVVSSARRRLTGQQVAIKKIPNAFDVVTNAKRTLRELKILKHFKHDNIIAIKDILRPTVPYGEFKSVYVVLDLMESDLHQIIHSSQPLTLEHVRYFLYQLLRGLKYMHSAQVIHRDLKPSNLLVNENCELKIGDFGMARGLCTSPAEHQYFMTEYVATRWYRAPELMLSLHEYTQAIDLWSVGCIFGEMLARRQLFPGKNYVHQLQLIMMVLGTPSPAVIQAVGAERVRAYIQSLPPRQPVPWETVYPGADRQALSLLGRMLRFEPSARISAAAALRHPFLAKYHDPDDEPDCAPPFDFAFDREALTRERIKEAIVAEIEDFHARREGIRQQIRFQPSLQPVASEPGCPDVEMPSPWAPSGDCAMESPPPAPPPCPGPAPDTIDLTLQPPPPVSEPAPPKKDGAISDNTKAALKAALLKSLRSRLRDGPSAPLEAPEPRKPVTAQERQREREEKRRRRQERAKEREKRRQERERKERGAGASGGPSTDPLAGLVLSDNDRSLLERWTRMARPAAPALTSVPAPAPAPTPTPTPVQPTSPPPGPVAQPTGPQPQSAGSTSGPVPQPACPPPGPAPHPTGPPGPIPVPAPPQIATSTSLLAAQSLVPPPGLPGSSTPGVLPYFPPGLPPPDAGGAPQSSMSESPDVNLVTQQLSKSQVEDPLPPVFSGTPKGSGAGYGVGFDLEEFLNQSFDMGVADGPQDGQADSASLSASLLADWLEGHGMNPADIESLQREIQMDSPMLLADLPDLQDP", "outline": "(§1)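 Reactions contained 10 μM ATP and 10 μM test compound, each run in duplicate. Kinase activity is expressed as a percentage of DMSO-treated controls.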"}, "CAMK2a": {"molecular_target": "T2, CAMK2a (Homo sapiens, UniProt Q9UQM7)", "T2 construct": "purchased Reaction Biology Corp", "T2 sequence (Q9UQM7 whole entry)": "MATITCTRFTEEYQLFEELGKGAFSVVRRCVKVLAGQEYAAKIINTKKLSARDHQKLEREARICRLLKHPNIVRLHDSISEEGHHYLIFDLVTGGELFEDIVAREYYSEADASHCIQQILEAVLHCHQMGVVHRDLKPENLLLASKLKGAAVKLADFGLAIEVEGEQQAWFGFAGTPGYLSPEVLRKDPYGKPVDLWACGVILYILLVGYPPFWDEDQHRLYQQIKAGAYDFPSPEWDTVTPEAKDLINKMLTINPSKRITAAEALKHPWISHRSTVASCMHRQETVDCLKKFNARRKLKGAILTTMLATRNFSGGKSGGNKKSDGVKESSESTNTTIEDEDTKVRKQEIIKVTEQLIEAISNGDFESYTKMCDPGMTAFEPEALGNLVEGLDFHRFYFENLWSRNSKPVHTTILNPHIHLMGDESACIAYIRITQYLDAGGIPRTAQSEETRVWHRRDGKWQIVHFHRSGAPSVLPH", "outline": "as §1"}, "ASK1/MAP3K5": {"molecular_target": "T3, ASK1/MAP3K5 (Homo sapiens, UniProt Q99683)", "T3 construct": "purchased Reaction Biology Corp", "T3 sequence (Q99683 1-1374)": "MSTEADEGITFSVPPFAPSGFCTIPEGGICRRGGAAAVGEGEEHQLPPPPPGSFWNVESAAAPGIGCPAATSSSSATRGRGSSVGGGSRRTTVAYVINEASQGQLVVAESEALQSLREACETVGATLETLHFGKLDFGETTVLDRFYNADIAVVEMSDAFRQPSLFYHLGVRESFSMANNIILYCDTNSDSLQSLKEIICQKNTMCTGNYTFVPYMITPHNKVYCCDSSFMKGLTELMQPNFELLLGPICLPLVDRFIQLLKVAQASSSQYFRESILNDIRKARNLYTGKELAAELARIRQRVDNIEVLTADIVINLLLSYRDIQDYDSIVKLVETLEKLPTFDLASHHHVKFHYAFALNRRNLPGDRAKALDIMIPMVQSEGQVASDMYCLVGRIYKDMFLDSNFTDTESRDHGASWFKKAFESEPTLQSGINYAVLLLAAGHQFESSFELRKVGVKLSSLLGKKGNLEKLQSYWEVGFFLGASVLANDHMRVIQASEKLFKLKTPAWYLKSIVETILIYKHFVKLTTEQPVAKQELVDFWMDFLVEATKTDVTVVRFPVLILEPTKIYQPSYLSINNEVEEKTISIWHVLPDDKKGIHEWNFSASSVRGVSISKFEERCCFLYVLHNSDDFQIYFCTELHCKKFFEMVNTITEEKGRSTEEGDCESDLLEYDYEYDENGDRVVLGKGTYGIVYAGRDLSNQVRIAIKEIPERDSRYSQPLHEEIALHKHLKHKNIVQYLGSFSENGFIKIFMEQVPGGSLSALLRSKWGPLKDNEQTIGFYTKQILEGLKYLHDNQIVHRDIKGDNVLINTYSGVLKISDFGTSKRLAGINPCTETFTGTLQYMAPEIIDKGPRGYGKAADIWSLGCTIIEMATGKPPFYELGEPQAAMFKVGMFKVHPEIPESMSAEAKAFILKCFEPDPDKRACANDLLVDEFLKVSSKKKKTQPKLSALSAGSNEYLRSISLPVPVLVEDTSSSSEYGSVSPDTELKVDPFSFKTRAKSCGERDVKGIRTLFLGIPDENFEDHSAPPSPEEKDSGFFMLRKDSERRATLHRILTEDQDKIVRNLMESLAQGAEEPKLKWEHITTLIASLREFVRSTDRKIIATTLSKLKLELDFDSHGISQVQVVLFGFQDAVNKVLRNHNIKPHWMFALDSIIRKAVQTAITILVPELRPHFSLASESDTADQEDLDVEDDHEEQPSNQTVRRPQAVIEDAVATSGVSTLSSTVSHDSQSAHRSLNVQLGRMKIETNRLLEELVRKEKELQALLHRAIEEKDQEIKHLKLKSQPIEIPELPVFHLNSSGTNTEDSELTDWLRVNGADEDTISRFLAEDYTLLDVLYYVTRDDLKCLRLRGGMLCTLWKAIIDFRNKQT", "outline": "as §1"}, "PKG1b": {"molecular_target": "T4, PKG1b (Homo sapiens, UniProt Q13976)", "T4 construct": "purchased Reaction Biology Corp", "T4 sequence (Q13976 1-686 isoform Q13976-2)": "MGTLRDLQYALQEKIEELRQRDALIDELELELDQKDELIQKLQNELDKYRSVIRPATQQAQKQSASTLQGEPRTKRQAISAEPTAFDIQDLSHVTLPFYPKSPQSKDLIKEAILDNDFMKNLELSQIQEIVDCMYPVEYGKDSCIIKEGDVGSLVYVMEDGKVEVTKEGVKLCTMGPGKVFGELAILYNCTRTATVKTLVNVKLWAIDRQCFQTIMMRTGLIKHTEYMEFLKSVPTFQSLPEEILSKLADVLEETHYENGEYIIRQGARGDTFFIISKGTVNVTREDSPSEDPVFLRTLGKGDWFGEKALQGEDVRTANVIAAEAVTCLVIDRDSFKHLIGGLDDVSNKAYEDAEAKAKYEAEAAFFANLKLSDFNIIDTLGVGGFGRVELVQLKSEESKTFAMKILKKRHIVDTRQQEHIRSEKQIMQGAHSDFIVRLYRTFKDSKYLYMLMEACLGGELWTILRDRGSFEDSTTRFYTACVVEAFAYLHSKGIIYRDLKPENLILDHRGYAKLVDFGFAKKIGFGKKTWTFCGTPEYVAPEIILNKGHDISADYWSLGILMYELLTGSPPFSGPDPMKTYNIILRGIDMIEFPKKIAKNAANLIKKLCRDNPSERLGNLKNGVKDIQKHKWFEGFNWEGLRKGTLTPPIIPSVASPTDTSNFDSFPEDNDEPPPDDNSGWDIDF", "outline": "as §1"}, "PAK1": {"molecular_target": "T5, PAK1 (Homo sapiens, UniProt Q13153)", "T5 construct": "purchased Reaction Biology Corp", "T5 sequence (Q13153 whole entry)": "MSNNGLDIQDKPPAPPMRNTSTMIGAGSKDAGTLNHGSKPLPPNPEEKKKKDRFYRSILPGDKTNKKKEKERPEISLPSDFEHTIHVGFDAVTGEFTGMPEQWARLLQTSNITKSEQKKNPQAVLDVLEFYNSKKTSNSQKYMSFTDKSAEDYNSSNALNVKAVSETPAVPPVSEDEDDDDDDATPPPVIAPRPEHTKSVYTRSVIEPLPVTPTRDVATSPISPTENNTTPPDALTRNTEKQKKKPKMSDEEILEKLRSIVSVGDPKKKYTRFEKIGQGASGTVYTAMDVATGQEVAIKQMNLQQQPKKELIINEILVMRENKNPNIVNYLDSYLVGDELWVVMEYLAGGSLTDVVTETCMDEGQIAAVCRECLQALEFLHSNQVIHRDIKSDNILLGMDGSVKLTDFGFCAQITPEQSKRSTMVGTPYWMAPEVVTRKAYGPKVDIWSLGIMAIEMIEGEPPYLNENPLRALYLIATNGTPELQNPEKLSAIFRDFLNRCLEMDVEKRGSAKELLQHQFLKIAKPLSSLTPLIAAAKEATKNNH", "outline": "as §1"}, "CDK4/cyclin D3": {"molecular_target": "T6, CDK4/cyclin D3 (Homo sapiens, UniProt P11802)", "T6 construct": "purchased Reaction Biology Corp", "T6 sequence (P11802 whole entry)": "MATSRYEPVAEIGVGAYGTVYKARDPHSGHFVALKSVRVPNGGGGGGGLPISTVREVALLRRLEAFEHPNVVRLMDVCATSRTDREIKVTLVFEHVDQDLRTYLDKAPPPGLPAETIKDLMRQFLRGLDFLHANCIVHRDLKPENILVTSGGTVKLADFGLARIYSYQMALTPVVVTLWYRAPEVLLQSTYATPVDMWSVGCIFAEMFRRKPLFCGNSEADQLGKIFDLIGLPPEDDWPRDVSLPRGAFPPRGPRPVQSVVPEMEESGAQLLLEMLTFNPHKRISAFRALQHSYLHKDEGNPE", "T6 sequence (P30281 whole entry partner)": "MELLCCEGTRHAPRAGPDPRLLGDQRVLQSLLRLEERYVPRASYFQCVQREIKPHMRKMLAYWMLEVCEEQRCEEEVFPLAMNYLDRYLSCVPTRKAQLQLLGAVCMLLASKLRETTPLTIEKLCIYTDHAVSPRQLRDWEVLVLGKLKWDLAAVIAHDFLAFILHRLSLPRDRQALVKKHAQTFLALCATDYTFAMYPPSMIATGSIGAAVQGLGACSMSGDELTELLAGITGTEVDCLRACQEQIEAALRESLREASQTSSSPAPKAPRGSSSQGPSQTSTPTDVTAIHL", "outline": "as §1"}, "[1]": {"settings": "read-out: % Enzyme Activity (relative to DMSO controls) AVG"}, "[2]": {"settings": "read-out: % Enzyme Activity (relative to DMSO controls) Data 1"}, "[3]": {"settings": "read-out: % Enzyme Activity (relative to DMSO controls) Data 2"}}, "note": "Where two headings read alike, the source gives them in different places."}
{"smiles": "CC(C)(C)C(=O)N1N=CC[C@H]1c1ccccc1", "note": "[GSK′963]", "values": [{"measurement": "remaining activity at 10 µM", "setting": "ERK5/MAPK7; [1]", "value": 97.8, "unit": "%"}, {"measurement": "remaining activity at 10 µM", "setting": "ERK5/MAPK7; [2]", "value": 95.5, "unit": "%"}, {"measurement": "remaining activity at 10 µM", "setting": "ERK5/MAPK7; [3]", "value": 100, "unit": "%"}, {"measurement": "remaining activity at 10 µM", "setting": "CAMK2a; [1]", "value": 102, "unit": "%"}, {"measurement": "remaining activity at 10 µM", "setting": "CAMK2a; [2]", "value": 101, "unit": "%"}, {"measurement": "remaining activity at 10 µM", "setting": "CAMK2a; [3]", "value": 102, "unit": "%"}, {"measurement": "remaining activity at 10 µM", "setting": "ASK1/MAP3K5; [1]", "value": 98.8, "unit": "%"}, {"measurement": "remaining activity at 10 µM", "setting": "ASK1/MAP3K5; [2]", "value": 99.4, "unit": "%"}, {"measurement": "remaining activity at 10 µM", "setting": "ASK1/MAP3K5; [3]", "value": 98.1, "unit": "%"}, {"measurement": "remaining activity at 10 µM", "setting": "PKG1b; [1]", "value": 80.5, "unit": "%"}, {"measurement": "remaining activity at 10 µM", "setting": "PKG1b; [2]", "value": 78.3, "unit": "%"}, {"measurement": "remaining activity at 10 µM", "setting": "PKG1b; [3]", "value": 82.6, "unit": "%"}, {"measurement": "remaining activity at 10 µM", "setting": "PAK1; [1]", "value": 92.8, "unit": "%"}, {"measurement": "remaining activity at 10 µM", "setting": "PAK1; [2]", "value": 92.5, "unit": "%"}, {"measurement": "remaining activity at 10 µM", "setting": "PAK1; [3]", "value": 93, "unit": "%"}, {"measurement": "remaining activity at 10 µM", "setting": "CDK4/cyclin D3; [1]", "value": 96.2, "unit": "%"}, {"measurement": "remaining activity at 10 µM", "setting": "CDK4/cyclin D3; [2]", "value": 98.3, "unit": "%"}, {"measurement": "remaining activity at 10 µM", "setting": "CDK4/cyclin D3; [3]", "value": 94.1, "unit": "%"}]}
